Measured values from PMC13266999, “Designing Antibiotics with Inherent Resistance to Efflux as a Strategy to Revive Discovery against Multidrug-Resistant Pathogens” (Journal of Medicinal Chemistry, 2026).
Converted amounts (≈) assume the structure as drawn. Where two headings read alike, the source gives them in different places.

Key:
[1] = Pharmacokinetics; conditions: male, ICR (CD-1), mouse
Experimental: Pharmacokinetic studies were performed in male ICR (CD-1) mice obtained from Charles River, UK. […] Blood samples were collected from the caudal vein into anticoagulant-treated capillaries at predetermined time points up to 8 h, with terminal cardiac puncture at 8 h. Plasma samples were stored at −80 °C until analysis. […] A compound-specific LC-MS/MS method was developed for each test article using matrix-matched calibrators following protein precipitation of samples.

[2] = tested on: S. aureus; test: Serial passaging, MIC of adapted strains; format: cell-based; conditions: Staphylococcus aureus
Experimental: MICs were performed on the first and 10th passage.

[3] = tested on: A. baumannii; test: Mutation frequency and agar MIC; format: cell-based; conditions: A118
Experimental: (§1) Mutation frequencies were performed on solid media at supra-inhibitory concentrations. First, the agar MIC was performed to account for any issues in solubility of compounds in solid media. Agar plates were prepared with 2-fold dilutions of compound.
(§2) For the mutation frequency assay, bacteria from an overnight culture were grown to mid exponential phase in liquid broth, then 100 μL was spread onto an agar plate containing compound at concentrations above the agar MIC. A Miles-Misra was also conducted on an antibiotic-free agar plate to determine the CFU/mL of the starting population. […] The mutation frequency was calculated by dividing the number of colonies on supra inhibitory con-centration plates by the starting population.

[4] = tested on: E. coli; test: Mutation frequency and agar MIC; format: cell-based
Experimental: as §1, §2

[5] = tested on: S. aureus; test: Mutation frequency and agar MIC; format: cell-based
Experimental: as §1, §2

[6] = tested on: Acinetobacter baumannii; test: MIC (microbroth dilution); format: cell-based
Procedure, shortened: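 Broth microdilution MICs were run in tryptic soy broth, or for Streptococcus spp. in cation-adjusted Mueller Hinton broth with 2.5% lysed horse blood, using overnight stationary-phase cultures back-diluted. MIC was the lowest concentration with no visible growth, with OD600 also read. Some MICs included PMBN at 30 μg/mL final.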

[7] = biological target: T1, GyrA S84L mutant DNA gyrase (Staphylococcus aureus, UniProt P0A0K8+P20831, S84L); test: DNA gyrase supercoiling inhibition assay; format: biochemical, S. aureus
T1 construct: purchased Inspiralis Ltd. (Norwich, UK)
Experimental: (§3) Gyrase inhibition was determined through biochemical assay kits from Inspiralis Ltd. (Norwich, UK), according to manufacturer’s instructions, and as described previously. Briefly, 1U of enzyme was incubated with 0.5 μg of relaxed […] DNA in the presence of compound in 1% DMSO for 30 min at 37 °C. A control reaction contained no compound but still contained 1% DMSO. The reactions were stopped through Stop Buffer addition and the DNA separated through addition of chloroform/iso-amyl alcohol (24;1). Samples were run on a 1% agarose gel at 75 V for 2 h, which was then stained with 1 μg/mL ethidium bromide and visualized using a NuGenius gel imager (Syngene). The intensity of the supercoiled DNA band was quantified using Syngene software, and the inhibition of the supercoiling of the DNA by the compounds was calculated.

[8] = biological target: T2, WT DNA gyrase (Staphylococcus aureus, UniProt P0A0K8+P20831); test: DNA gyrase supercoiling inhibition assay; format: biochemical, S. aureus
T2 construct: purchased Inspiralis Ltd. (Norwich, UK)
Experimental: as §3

C[C@H]1COc2c(N3CC[C@@H](Nc4ncccn4)C3)c(F)cc3c(=O)c(C(=O)O)cn1c23 [Compound 46, (S)-9-Fluoro-3-methyl-7-oxo-10-((R)-3-(pyrimidin-2-ylamino)pyrrolidin-1-yl)-2,3-dihydro-7H-[1,4]oxazino[2,3,4-ij]quinoline-6-carboxylic acid]
half-life ([1]; in vivo, po, 20 mg/kg): 5.1 h
AUC(0-inf) ([1]; plasma, iv, 5 mg/kg): 15700 ng·h/mL
bioavailability ([1]; plasma, po, 20 mg/kg): 49.3%
MIC ([2]; 1199B WT): 0.015 µg/mL
MIC ([2]; 1199B adapted to 4 x MIC of Compound 7): 0.03 µg/mL
MIC ([2]; 1199B adapted to 4 x MIC of Compound 46): 0.125 µg/mL
MIC ([2]; 1199B adapted to 4 x MIC of Compound 50): 0.25 µg/mL
MIC ([2]; 1199B adapted to 4 x MIC of Compound 51): 0.06 µg/mL
MIC ([2]; 1199 WT): 0.008 µg/mL
MIC ([2]; 1199 adapted to 4 x MIC of Compound 7): 0.015 µg/mL
MIC ([2]; 1199 adapted to 4 x MIC of Compound 46): 0.03 µg/mL
MIC ([2]; 1199 adapted to 4 x MIC of Compound 50): 0.125 µg/mL
MIC ([2]; 1199 adapted to 4 x MIC of Compound 51): 0.03 µg/mL
MIC ([2]; NCTC13616, NCTC 13616 WT): 0.5 µg/mL
MIC ([2]; NCTC13616, NCTC 13616 adapted to 4 x MIC of Compound 7): 0.5 µg/mL
MIC ([2]; NCTC13616, NCTC 13616 adapted to 4 x MIC of Compound 46): 0.5 µg/mL
MIC ([2]; NCTC13616, NCTC 13616 adapted to 4 x MIC of Compound 50): 0.5 µg/mL
MIC ([2]; NCTC13616, NCTC 13616 adapted to 4 x MIC of Compound 51): 2 µg/mL
Agar MIC [3]: 0.03 µg/mL
Agar MIC ([4]; NCTC 12241): 0.03 µg/mL
Agar MIC ([4]; NCTC 12923): 0.12 µg/mL
Agar MIC ([5]; ATCC 9144): 0.008 µg/mL
Agar MIC ([5]; NCTC 13616): 0.5 µg/mL
MIC ([6]; Acinetobacter baumannii, 86, oxa23, read-out: MIC): 8 µg/mL (≈ 18.8 µM)
MIC ([6]; Acinetobacter baumannii, 96, oxa23, read-out: MIC): 4 µg/mL (≈ 9.4 µM)
MIC ([6]; Acinetobacter baumannii, 113, oxa23, read-out: MIC): 4 µg/mL (≈ 9.4 µM)
MIC ([6]; Acinetobacter baumannii, A118, read-out: MIC): ≤ 0.06 µg/mL
MIC ([6]; Acinetobacter baumannii, A318, read-out: MIC): 8 µg/mL (≈ 18.8 µM)
MIC ([6]; Acinetobacter baumannii, A319, read-out: MIC): 8 µg/mL (≈ 18.8 µM)
MIC ([6]; Acinetobacter baumannii, A600 colR, read-out: MIC): 4 µg/mL (≈ 9.4 µM)
MIC ([6]; Acinetobacter baumannii, A601 colS, read-out: MIC): ≤ 0.06 µg/mL
MIC ([6]; Acinetobacter baumannii, AB01335 adeG183::T26): 4 µg/mL (≈ 9.4 µM)
MIC ([6]; Acinetobacter baumannii, AB5075-UW, read-out: MIC): 4 µg/mL (≈ 9.4 µM)
MIC ([6]; Acinetobacter baumannii, AB05215 adeS132::T26): 4 µg/mL (≈ 9.4 µM)
MIC ([6]; Acinetobacter baumannii, AB05218 adeS141::T26): 4 µg/mL (≈ 9.4 µM)
MIC ([6]; Acinetobacter baumannii, AB05219 adeR103::T26): 4 µg/mL (≈ 9.4 µM)
MIC ([6]; Acinetobacter baumannii, AB05222 adeR160::T101): 4 µg/mL (≈ 9.4 µM)
MIC ([6]; Acinetobacter baumannii, AB05226 adeA165::T26): 4 µg/mL (≈ 9.4 µM)
MIC ([6]; Acinetobacter baumannii, AB05227 adeA138::T26): 2 µg/mL (≈ 4.7 µM)
MIC ([6]; Acinetobacter baumannii, AB05228 adeB150::T26): 1 µg/mL (≈ 2.35 µM)
MIC ([6]; Acinetobacter baumannii, AB05230 adeB181::T26): 1 µg/mL (≈ 2.35 µM)
MIC ([6]; Acinetobacter baumannii, ATCC17978, ATCC 17978, read-out: MIC): ≤ 0.25 µg/mL
MIC ([6]; Acinetobacter baumannii, BAA1709, BAA-1709, read-out: MIC): 0.125 µg/mL (≈ 0.294 µM)
MIC ([6]; Acinetobacter baumannii, BAA1710, BAA-1710 (AYE), read-out: MIC): 4 µg/mL (≈ 9.4 µM)
MIC ([6]; Acinetobacter baumannii, BAA2093, BAA-2093, read-out: MIC): 0.03 to 0.06 µg/mL (≈ 0.0705 to 0.141 µM)
MIC ([6]; Acinetobacter baumannii, NCTC10303, NCTC 10303, read-out: MIC): ≤ 0.06 µg/mL
MIC ([6]; Acinetobacter baumannii, NCTC12156, NCTC 12156, read-out: MIC): 0.125 µg/mL (≈ 0.294 µM)
MIC ([6]; Acinetobacter baumannii, NCTC13302, NCTC 13302, oxa24, read-out: MIC): 4 µg/mL (≈ 9.4 µM)
MIC ([6]; Acinetobacter baumannii, NCTC13424, NCTC 13424, oxa23, read-out: MIC): > 64 µg/mL
MIC ([6]; Acinetobacter baumannii, T strain, read-out: MIC): 8 µg/mL (≈ 18.8 µM)
MIC ([6]; Acinetobacter baumannii, UKA1, oxa23, read-out: MIC): 4 µg/mL (≈ 9.4 µM)
MIC ([6]; Acinetobacter baumannii, UKA2, Low resistance, read-out: MIC): 8 µg/mL (≈ 18.8 µM)
MIC ([6]; Acinetobacter baumannii, UKA9, read-out: MIC): ≤ 0.06 µg/mL
MIC ([6]; Acinetobacter baumannii, UKA12, oxa23, read-out: MIC): 2 µg/mL (≈ 4.7 µM)
MIC ([6]; Acinetobacter baumannii, UKA13, oxa23, read-out: MIC): 2 µg/mL (≈ 4.7 µM)
MIC ([6]; Acinetobacter baumannii, UKA15, oxa23, read-out: MIC): 1 µg/mL (≈ 2.35 µM)
MIC ([6]; Acinetobacter baumannii, UKA19, read-out: MIC): 0.25 µg/mL (≈ 0.588 µM)
MIC ([6]; Acinetobacter baumannii, W1, read-out: MIC): 4 µg/mL (≈ 9.4 µM)
IC50 [7]: 95.3 µM
IC50 [8]: 7.92 µM
